Data: ChEMBL document CHEMBL1147956 (Bioorg Med Chem Lett, 2007)

Molecular target: T1, Inhibitor of nuclear factor kappa-B kinase subunit beta (Homo sapiens, UniProt O14920)
T1 sequence (O14920 whole entry): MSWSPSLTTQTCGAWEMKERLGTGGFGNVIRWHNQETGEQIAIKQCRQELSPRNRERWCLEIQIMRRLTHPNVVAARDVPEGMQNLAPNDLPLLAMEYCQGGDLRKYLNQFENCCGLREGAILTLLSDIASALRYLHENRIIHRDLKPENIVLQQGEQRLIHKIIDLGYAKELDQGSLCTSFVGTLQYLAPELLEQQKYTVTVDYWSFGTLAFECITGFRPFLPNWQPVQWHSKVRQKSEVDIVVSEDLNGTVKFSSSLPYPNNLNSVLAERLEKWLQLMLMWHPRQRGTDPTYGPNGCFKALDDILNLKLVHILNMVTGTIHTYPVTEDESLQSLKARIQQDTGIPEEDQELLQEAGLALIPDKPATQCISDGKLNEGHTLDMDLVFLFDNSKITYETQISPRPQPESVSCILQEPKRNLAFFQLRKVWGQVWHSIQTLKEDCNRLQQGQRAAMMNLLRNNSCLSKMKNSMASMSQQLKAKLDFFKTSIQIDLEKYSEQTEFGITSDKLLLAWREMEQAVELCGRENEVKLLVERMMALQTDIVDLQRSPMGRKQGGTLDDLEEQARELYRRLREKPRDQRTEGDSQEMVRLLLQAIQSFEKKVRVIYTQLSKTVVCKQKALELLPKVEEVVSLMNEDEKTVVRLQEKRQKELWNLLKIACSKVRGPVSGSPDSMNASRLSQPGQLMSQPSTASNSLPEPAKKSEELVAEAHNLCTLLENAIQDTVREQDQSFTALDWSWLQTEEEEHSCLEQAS
Test: Inhibition of IKK-beta after 30 mins

For Cc1cc(-c2c3ccccc3c(Br)c3sc(C)c(C)c23)cc(C)c1O[C@H](Cc1ccccc1)C(=O)O [ERTIPROTAFIB], which IC50 is on record?
The IC50 was 400 nM.
